From ChEMBL document CHEMBL1159015, “Isolation of the bioactive terpene 7-deacetoxy-olepupuane from the temperate marine sponge Dysidea sp” (J Nat Prod, 1992)
Converted amounts (≈) assume the structure as drawn.

Tested on: P388
Assay: Cytotoxicity against mouse P388 cells
Format: functional, cell-based

## CC(=O)O[C@@H]1OC=C2CC[C@H]3C(C)(C)CCC[C@]3(C)[C@H]21
  IC50: 16.4 µg/mL (≈ 58.9 µM)
